In patent publication US9975888B2, “Aryl linked imidazole and triazole derivatives and methods of use thereof for improving the pharmacokinetics of a drug” (MERCK SHARP & DOHME CORP., priority 2013, dated 2018):

How the values were obtained:
Assay type in all cases: biochemical
CYP3A4 [1] = biological target: T1, CYP3A4 (Homo sapiens, UniProt P08684); test: Cocktail assay for CYPs, midazolam 1′-hydroxylation (CYP3A4), human liver microsomes; parameters: 0.1 mg/mL protein human liver microsomes (BD Gentest); tissue BD Gentest; host or cells: human liver microsomes; details: 2 μM midazolam, 0.1 mg/mL human liver microsomes, 10 min at 37° C.; read-out: CYP IC50 (nM) 3A4 (MDZ)
Method: (§1) Determination of IC50 in a Cocktail Assay for CYPs 1A2, 2C9, 2C19, 2D6 and 3A4:
(§2) This assay was performed in a standard 96-well plate design. IC50 values were calculated from the percent inhibition observed for each test compound at 6 concentrations (for example, 0.0032, 0.016, 0.08, 0.4, 2 and 10 μM). The incubation substrate mix contains 10 μM phenacetin (1A2), 5 μM diclofenac (2C9), 30 μM mephenytoin (2C19), 5 μM dextromethorphan (2D6) and 2 μM midazolam (3A4), 0.1 mg/mL protein human liver microsomes (BD Gentest), 1 mM NAPDH, 3.3 mM MgCl2 and 100 mM potassium phosphate buffer (pH 7.4). The production of the metabolite of each probe substrate was determined after incubation for 10 min at 37° C. Quantitation of the metabolite peak area ratio against an internal standard (tolbutamide) was determined by LC/MS/MS analysis following acetonitrile treatment of the incubations.
(§3) Samples were analyzed in the MRM mode with a SCIEX API-4000 mass spectrometer (Applied Biosystems, Foster City, Calif.), with a Shimadzu LC-20 AD pump (Shimadzu corporation, Kyoto, JP) and a CTC PAL autosampler (Agilent Technologies, Switzerland). A Phenomenex, Luna, 5 nm, 100 A, 2.00×30 mm HPLC column was used for the separation. The mobile phases were: (A) 0.1% formic acid in water and (B) 0.1% formic acid in acetonitrile. The binary gradient was as follows.
(§4) The peak area ratio of the analyte to the internal standard was used to quantify the metabolite. The values of peak area ratios in the presence of test compound were compared to those of maximum or minimum controls and were expressed as % inhibition by interpolating between the maximum and minimum peak area ratios. Incubations with no inhibitor were defined as the maxima. The following equation was used to calculate the % inhibition: [1−[(X−Low control)/(High control−Low control)]]*100 For the IC50 calculation, SigmaPlot was used to plot the mean % inhibition versus the test compound concentrations and for non-linear regression analysis of the data. Depending on the range of data points defining the inhibition curve, the data may have been fit to the 4-parameter logistic equation.
Target sequence in this assay (P08684 whole entry): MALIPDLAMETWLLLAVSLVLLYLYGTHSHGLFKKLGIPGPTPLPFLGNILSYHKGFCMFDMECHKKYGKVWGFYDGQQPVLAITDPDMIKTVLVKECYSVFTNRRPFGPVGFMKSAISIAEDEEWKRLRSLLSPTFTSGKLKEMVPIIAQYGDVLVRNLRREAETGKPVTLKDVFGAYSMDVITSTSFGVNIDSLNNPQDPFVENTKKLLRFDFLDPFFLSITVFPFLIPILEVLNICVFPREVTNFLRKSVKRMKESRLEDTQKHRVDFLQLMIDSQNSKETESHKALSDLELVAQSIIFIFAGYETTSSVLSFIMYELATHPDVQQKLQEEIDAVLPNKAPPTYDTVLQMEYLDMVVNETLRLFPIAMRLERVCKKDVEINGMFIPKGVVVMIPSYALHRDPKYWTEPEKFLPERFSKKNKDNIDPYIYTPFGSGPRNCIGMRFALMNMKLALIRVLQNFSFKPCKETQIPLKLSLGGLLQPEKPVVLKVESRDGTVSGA

CYP2C9 = biological target: T2, CYP2C9 (Homo sapiens, UniProt P11712); test: Cocktail assay for CYPs, diclofenac 4′-hydroxylation (CYP2C9), human liver microsomes; details: 5 μM diclofenac, 0.1 mg/mL human liver microsomes, 10 min at 37° C.; read-out: CYP IC50 (nM) 2C9
T2 construct: 0.1 mg/mL protein human liver microsomes (BD Gentest); tissue BD Gentest; host or cells: human liver microsomes
Method: as §1
as §2, with “IC50 values were calculated from the percent inhibition observed for each test compound at 6 concentrations (for example, 0.0032, 0.016, 0.08, 0.4, 2 and 10 μM).” left out
as §3, §4

CYP1A2 = biological target: T3, CYP1A2 (Homo sapiens, UniProt P05177); test: Cocktail assay for CYPs, phenacetin O-deethylation (CYP1A2), human liver microsomes; details: 10 μM phenacetin, 0.1 mg/mL human liver microsomes, 10 min at 37° C.; read-out: CYP IC50 (nM) 1A2
T3 construct: 0.1 mg/mL protein human liver microsomes (BD Gentest); tissue BD Gentest; host or cells: human liver microsomes
T3 sequence (P05177 1-516): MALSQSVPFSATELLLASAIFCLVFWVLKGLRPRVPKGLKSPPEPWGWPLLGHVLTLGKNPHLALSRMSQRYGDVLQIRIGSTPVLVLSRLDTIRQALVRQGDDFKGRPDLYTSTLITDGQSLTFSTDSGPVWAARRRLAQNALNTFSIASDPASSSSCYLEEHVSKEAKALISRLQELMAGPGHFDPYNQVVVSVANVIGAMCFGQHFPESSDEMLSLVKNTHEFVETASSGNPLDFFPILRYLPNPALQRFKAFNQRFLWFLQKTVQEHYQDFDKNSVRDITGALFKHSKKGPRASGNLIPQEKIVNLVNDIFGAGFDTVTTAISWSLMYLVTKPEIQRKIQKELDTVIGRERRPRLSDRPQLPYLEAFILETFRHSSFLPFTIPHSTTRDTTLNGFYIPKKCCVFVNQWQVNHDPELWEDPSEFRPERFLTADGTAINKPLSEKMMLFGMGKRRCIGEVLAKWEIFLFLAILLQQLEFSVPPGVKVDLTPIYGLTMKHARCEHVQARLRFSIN
Method: as §1, §2, §3, §4

CYP2D6 = biological target: T4, CYP2D6 (Homo sapiens, UniProt P10635); test: Cocktail assay for CYPs, dextromethorphan O-demethylation (CYP2D6), human liver microsomes; details: 5 μM dextromethorphan, 0.1 mg/mL human liver microsomes, 10 min at 37° C.; read-out: CYP IC50 (nM) 2D6
T4 construct: 0.1 mg/mL protein human liver microsomes (BD Gentest); tissue BD Gentest; host or cells: human liver microsomes
Method: as §1, §2, §3, §4

CYP2C19 = biological target: T5, CYP2C19 (Homo sapiens, UniProt P33261); test: Cocktail assay for CYPs, mephenytoin 4′-hydroxylation (CYP2C19), human liver microsomes; details: 30 μM mephenytoin, 0.1 mg/mL human liver microsomes, 10 min at 37° C.; read-out: CYP IC50 (nM) 2C19
T5 construct: 0.1 mg/mL protein human liver microsomes (BD Gentest); tissue BD Gentest; host or cells: human liver microsomes
Method: as §1
as §2, with “IC50 values were calculated from the percent inhibition observed for each test compound at 6 concentrations (for example, 0.0032, 0.016, 0.08, 0.4, 2 and 10 μM).” left out
as §3, §4

CYP3A4 [2] = biological target: T1, CYP3A4; test: IC50 vs CYP3A by inhibition of lopinavir metabolism in human liver microsomes; parameters: 0.01 mg/mL protein human liver microsomes (BD Gentest); tissue BD Gentest; host or cells: human liver microsomes; details: 1.5 μM lopinavir, 0.01 mg/mL human liver microsomes, 8 min at 37° C.; read-out: CYP IC50 (nM) 3A4 (LPV)
Method: Determination of IC50 vs CYP3A by Measurement of Inhibition of Lopinavir Metabolism
This assay was performed in a standard 96-well plate design. IC50 values were calculated from the percent inhibition observed for each test compound at 6 concentrations (for example, 0.098, 0.391, 1.56, 6.25, 25 and 100 nM). The incubation substrate mix contains 1.5 μM lopinavir, 0.01 mg/mL protein human liver microsomes (BD Gentest), 1 mM NAPDH, 3.3 mM MgCl2 and 100 mM potassium phosphate buffer (pH 7.4). The production of the sum of three hydroxylated metabolites (M2: 6-hydroxy lopinavir, M3: 4-hydroxy lopinavir, M4: 4-hydroxy lopinavir (epimer of M3), Kumar et al., 1999) was determined after incubation for 8 min at 37° C. Quantitation of the metabolite peak area ratio against an internal standard (tolbutamide) was determined by LC/MS/MS analysis following acetonitrile treatment of the incubations.
as §3, with “μm,” for “nm,”
Target sequence in this assay (P08684 2-503): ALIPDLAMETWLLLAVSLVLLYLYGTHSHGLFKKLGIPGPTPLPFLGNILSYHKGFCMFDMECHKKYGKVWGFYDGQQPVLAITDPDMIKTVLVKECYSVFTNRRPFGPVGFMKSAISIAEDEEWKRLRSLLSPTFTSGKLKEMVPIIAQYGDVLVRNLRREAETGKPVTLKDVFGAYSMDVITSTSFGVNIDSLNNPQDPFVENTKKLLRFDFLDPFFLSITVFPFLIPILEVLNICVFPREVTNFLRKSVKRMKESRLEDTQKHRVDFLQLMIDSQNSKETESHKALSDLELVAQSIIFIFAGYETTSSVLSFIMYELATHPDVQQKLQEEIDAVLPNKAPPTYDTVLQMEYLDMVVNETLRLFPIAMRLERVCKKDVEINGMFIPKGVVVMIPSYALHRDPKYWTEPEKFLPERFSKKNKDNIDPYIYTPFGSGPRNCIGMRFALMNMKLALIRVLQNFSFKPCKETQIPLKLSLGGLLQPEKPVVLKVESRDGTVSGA
The peak area ratio of the analyte to the internal standard was used to quantify the metabolite. The values of peak area ratios in the presence of test compound were compared to those of maximum or minimum controls and were expressed as % inhibition by interpolating between the maximum and minimum peak area ratios. Incubations with no inhibitor were defined as the maxima and with 5 μM ketoconazole were defined as the minima.
The following equation was used to calculate the % inhibition: [1−[(X−Low control)/(High control−Low control)]]*100
For the IC50 calculation, SigmaPlot was used to plot the mean % inhibition versus the test compound concentrations and for non-linear regression analysis of the data. Depending on the range of data points defining the inhibition curve, the data may have been fit to the 4-parameter logistic equation.

T4 sequence (P10635 whole entry): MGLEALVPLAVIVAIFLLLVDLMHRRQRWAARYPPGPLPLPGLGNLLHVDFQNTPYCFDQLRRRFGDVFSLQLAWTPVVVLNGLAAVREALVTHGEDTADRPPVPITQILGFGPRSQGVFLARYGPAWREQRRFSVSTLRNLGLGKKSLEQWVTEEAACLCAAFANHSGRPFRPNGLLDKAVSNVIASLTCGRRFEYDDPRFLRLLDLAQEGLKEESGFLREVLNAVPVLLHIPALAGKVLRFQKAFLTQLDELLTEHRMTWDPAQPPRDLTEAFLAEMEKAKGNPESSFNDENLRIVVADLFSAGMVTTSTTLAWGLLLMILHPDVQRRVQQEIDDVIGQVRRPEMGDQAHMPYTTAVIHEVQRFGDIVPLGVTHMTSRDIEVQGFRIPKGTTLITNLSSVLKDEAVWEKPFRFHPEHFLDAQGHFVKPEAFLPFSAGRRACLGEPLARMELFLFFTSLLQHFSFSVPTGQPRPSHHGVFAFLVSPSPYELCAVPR
T2 sequence (P11712 whole entry): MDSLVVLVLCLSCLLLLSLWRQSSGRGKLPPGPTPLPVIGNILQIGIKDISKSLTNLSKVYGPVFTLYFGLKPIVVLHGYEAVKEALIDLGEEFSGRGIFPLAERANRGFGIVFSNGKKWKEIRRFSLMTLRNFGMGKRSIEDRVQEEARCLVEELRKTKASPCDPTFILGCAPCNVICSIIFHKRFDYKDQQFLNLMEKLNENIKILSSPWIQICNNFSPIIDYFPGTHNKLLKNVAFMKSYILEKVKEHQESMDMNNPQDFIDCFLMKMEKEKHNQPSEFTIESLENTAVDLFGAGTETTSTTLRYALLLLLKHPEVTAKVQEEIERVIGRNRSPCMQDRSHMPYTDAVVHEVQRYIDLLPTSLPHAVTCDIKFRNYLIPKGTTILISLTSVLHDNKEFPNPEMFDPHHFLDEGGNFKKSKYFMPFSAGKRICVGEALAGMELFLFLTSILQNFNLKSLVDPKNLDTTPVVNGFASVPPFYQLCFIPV
T5 sequence (P33261 whole entry): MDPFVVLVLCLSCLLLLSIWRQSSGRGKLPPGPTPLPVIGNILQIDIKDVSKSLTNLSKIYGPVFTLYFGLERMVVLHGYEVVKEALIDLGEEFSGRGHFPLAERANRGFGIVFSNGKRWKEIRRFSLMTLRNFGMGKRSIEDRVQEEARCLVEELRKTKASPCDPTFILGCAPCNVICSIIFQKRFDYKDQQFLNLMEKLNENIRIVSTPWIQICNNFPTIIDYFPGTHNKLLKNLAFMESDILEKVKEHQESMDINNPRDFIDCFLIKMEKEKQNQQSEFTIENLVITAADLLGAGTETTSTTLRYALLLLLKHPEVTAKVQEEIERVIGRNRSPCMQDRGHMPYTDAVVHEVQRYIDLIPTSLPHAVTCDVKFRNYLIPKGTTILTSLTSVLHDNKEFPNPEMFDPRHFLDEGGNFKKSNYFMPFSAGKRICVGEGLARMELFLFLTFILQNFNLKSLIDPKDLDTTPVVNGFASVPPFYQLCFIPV

SMILES | IC50 (CYP3A4 [1]) [nM] | IC50 (CYP2C9) [nM] | IC50 (CYP1A2) [nM] | IC50 (CYP2D6) [nM] | IC50 (CYP2C19) [nM] | IC50 (CYP3A4 [2]) [nM]
O=S(=O)(c1ccc(NCC(O)C2CC2)nc1)N1CCCC1c1ccccc1-c1cncn1CCc1ccc(F)cc1 (single isomer, unassigned) [Compound 34a, 1-cyclopropyl-2-((5-(((R or S)-2-(2-(1-(4-fluorophenethyl)-1H-imidazol-5-yl)phenyl)pyrrolidin-1-yl)sulfonyl)pyridin-2-yl)amino)ethanol] | 10.4 | 2620 | 7020 | 1670 | 2680 | 4.5
O=S(=O)(c1ccc(NCC(O)C2CC2)nc1)N1CCCC1c1ccccc1-c1cncn1CCc1ccc(F)cc1 (single isomer, unassigned) [Compound 34b, 1-cyclopropyl-2-((5-(((R or S)-2-(2-(1-(4-fluorophenethyl)-1H-imidazol-5-yl)phenyl)pyrrolidin-1-yl)sulfonyl)pyridin-2-yl)amino)ethanol] | 5.5 | 1900 | > 10000 | 2420 | 4400 | 1
O=S(=O)(c1ccc(N2CCN(CCO)CC2)nc1)N1CCCC1c1ccccc1-c1cncn1CCc1ccc(F)cc1 (single isomer, unassigned) [Compound 35a, (R or S)-2-(4-(5-((2-(2-(1-(4-fluorophenethyl)-1H-imidazol-5-yl)phenyl)pyrrolidin-1-yl)sulfonyl)pyridin-2-yl)piperazin-1-yl) ethanol] | 8.1 | 8600 | > 10000 | 4600 | > 10000 | 4.2
O=S(=O)(c1ccc(N2CCN(CCO)CC2)nc1)N1CCCC1c1ccccc1-c1cncn1CCc1ccc(F)cc1 (single isomer, unassigned) [Compound 35b, (R or S)-2-(4-(5-((2-(2-(1-(4-fluorophenethyl)-1H-imidazol-5-yl)phenyl)pyrrolidin-1-yl)sulfonyl)pyridin-2-yl)piperazin-1-yl)ethanol] | 4 | 6930 | > 10000 | 3060 | 9720 | 0.9
CC(C)OC(=O)N1CCCC1c1ccccc1-c1cncn1CCc1ccc(F)cc1 (single isomer, unassigned) [Compound 39a, (R or S)-isopropyl 2-(2-(1-(4-fluorophenethyl)-1H-imidazol-5-yl)phenyl) pyrrolidine-1-carboxylate] | 7.6 | 2200 | 3840 | 9040 | 2730 | 4.3
CC(C)OC(=O)N1CCCC1c1ccccc1-c1cncn1CCc1ccc(F)cc1 (single isomer, unassigned) [Compound 39b, (R or S)-isopropyl 2-(2-(1-(4-fluorophenethyl)-1H-imidazol-5-yl)phenyl) pyrrolidine-1-carboxylate] | 34.5 | 6380 | > 10000 | 8580 | 4740 | 28.2
O=C(c1cccnc1)N1CCCC1c1ccccc1-c1cncn1CCc1ccc(F)cc1 (single isomer, unassigned) [Compound 42a, (R or S)-(2-(2-(1-(4-fluorophenethyl)-1H-imidazol-5-yl)phenyl)pyrrolidin-1-yl) (pyridin-3-yl) methanone] | 64.4 | > 10000 | > 10000 | 1830 | > 10000 | ≥ 100
O=C(c1cccnc1)N1CCCC1c1ccccc1-c1cncn1CCc1ccc(F)cc1 (single isomer, unassigned) [Compound 42b, (R or S)-(2-(2-(1-(4-fluorophenethyl)-1H-imidazol-5-yl)phenyl)pyrrolidin-1-yl) (pyridin-3-yl) methanone] | 13.1 | > 10000 | > 10000 | > 10000 | > 10000 | 9.3
O=C(c1ccc(N2CCOCC2)nc1)N1CCCC1c1ccccc1-c1cncn1CCc1ccc(F)cc1 (single isomer, unassigned) [Compound 43a, (R or S)-(2-(2-(1-(4-fluorophenethyl)-1H-imidazol-5-yl)phenyl)pyrrolidin-1-yl) (6-morpholino-pyridin-3-yl) methanone] | 36.3 | > 10000 | > 10000 | > 10000 | 3270 | 35.2
O=C(c1ccc(N2CCOCC2)nc1)N1CCCC1c1ccccc1-c1cncn1CCc1ccc(F)cc1 (single isomer, unassigned) [Compound 43b, (R or S)-(2-(2-(1-(4-fluorophenethyl)-1H-imidazol-5-yl)phenyl)pyrrolidin-1-yl) (6-morpholino-pyridin-3-yl) methanone] | 5.8 | 7950 | 4490 | 5360 | > 10000 | 2
